Measurements: PMC12305662, “Fragment-Based Development of Small Molecule Inhibitors Targeting Mycobacterium tuberculosis Cholesterol Metabolism” (Journal of Medicinal Chemistry, 2025)
Values after ≈ are worked out from the molar mass of the structure shown. Values joined by “and” are separate entries in the source; they are usually repeats but may differ in a detail not shown here. Equal entries are not always repeated. Where two headings read alike, the source gives them in different places.

Experiments:
CYP125 [1] = molecular target: T1, CYP125 (Mycobacterium tuberculosis, UniProt P9WPP1); experiment: biochemical; assay type: binding; conditions: read-out: KD (μM) CYP125
CYP125 [2] = molecular target: T1, CYP125; experiment: LC-MS substrate turnover assay (cholest-4-en-3-one); assay type: biochemical; conditions: for IC50: CYP125 0.5 μM, cholest-4-en-3-one 5 µM, LC-MS, read-out: CYP125A1 IC50; for Ki: estimated by Cheng-Prusoff, cholest-4-en-3-one Km CYP125 = 2.1 µM, read-out: CYP125A1 KI
Mtb H37Rv [3] = experiment: Extracellular Mtb growth on cholesterol, MABA MIC99; assay type: cell-based, Mycobacterium tuberculosis; conditions: read-out: MABA-MIC99 (W2) H37Rv, cholesterol
Mtb CDC1551 [4] = experiment: as above; assay type: cell-based, Mycobacterium tuberculosis; conditions: read-out: MABA-MIC99 (W2) CDC1551, cholesterol
Mtb H37Rv [5] = experiment: Depletion of intracellular ATP (BacTiter Glo), Mtb on cholesterol; assay type: cell-based, Mycobacterium tuberculosis; conditions: cholesterol as sole carbon source
Mtb CDC1551 [6] = experiment: as above; assay type: cell-based; conditions: Mycobacterium tuberculosis, cholesterol as sole carbon source
Mtb H37Rv [7] = system: Mtb H37Rv
Method: (§1) (Mtb) H37Rv or CDC1551 strains were grown in Middlebrook 7H9 broth medium (Difco) supplemented with 0.3 g/L casitone, 0.81 g/L NaCl, 0.05% (v/v) tyloxapol, and either 97 mg/L cholesterol, 4 g/L glucose, or 0.2% glycerol. For inhibitor assays, a 10-fold serial dilution of the test compounds was made in the desired medium in duplicate rows of a 96-well plate. Mtb cells were then added to all the wells at the final concentration of 1 × 10^4 CFU, and plates were incubated at 37 °C for up to 15 days. Minimum inhibitory concentrations (MIC99) were determined using the Microplate Alamar Blue Assay (MABA) on day 15.
(§2) BacTiter Glo reagent (Promega) was added to microtiter plates (1:10 dilution) and luminescence was recorded after 15 min of incubation at room temperature. […] Isoniazid or p-amino salicylic acid were used as positive control compounds for all experiments. Reported MIC and IC50 values are the mean of duplicate treatments.

CYP142 [8] = molecular target: T2, CYP142 (Mycobacterium tuberculosis, UniProt P9WPL5); experiment: biochemical
Mtb CDC1551 [9] = experiment: Depletion of intracellular ATP, Mtb on glucose; conditions: glucose as sole carbon source
Method: as §1, §2

[10] = system: Mtb H37Rv pATB45luc in THP-1 macrophages; experiment: microbe, parasite or virus in culture; assay type: cell-based; conditions: Mycobacterium tuberculosis, 120 h, 5 days post-compound treatment, mean ± SD n = 2, read-out: intracellular growth Mtb IC50
Mtb (Erdman) = experiment: Extracellular Mtb (Erdman) growth on cholesterol-supplemented (0.01%) media, MABA; assay type: cell-based, Mycobacterium tuberculosis; conditions: MABA 1 week post-compound treatment, mean ± SD n = 3, read-out: mixed media IC50 (Erdman)
CYP125 [11] = molecular target: T1, CYP125; assay type: binding; conditions: compound 100 µM, P450 5 µM; for CYP125 Δλmax (nm) LS: low spin population, '-' = no LS maxima present
CYP142 [12] = molecular target: T2, CYP142; conditions: compound 100 µM, P450 5 µM
[13] = Mycobacterium tuberculosis, H37RV, 336 h, cholesterol as sole carbon source, 2 weeks post-compound treatment
[14] = cholesterol as sole carbon source, 2 weeks post-compound treatment
[15] = Mycobacterium tuberculosis, CDC1551, 336 h, cholesterol as sole carbon source, 2 weeks post-compound treatment
[16] = Mycobacterium tuberculosis, H37RV, 168 h, 1 week post-compound treatment, read-out: ATP-IC50 (W1) H37Rv, cholesterol
[17] = Mycobacterium tuberculosis, H37RV, 336 h, 2 weeks post-compound treatment, read-out: ATP-IC50 (W2) H37Rv, cholesterol
[18] = CDC1551, 168 h, 1 week post-compound treatment, read-out: ATP-IC50 (W1) CDC1551, cholesterol
[19] = CDC1551, 336 h, 2 weeks post-compound treatment, read-out: ATP-IC50 (W2) CDC1551, cholesterol
[20] = read-out: ATP IC50 (W1) CDC1551, glucose media, 1 week
[21] = read-out: ATP IC50 (W2) CDC1551, glucose media, 2 weeks

T2 sequence (P9WPL5 whole entry): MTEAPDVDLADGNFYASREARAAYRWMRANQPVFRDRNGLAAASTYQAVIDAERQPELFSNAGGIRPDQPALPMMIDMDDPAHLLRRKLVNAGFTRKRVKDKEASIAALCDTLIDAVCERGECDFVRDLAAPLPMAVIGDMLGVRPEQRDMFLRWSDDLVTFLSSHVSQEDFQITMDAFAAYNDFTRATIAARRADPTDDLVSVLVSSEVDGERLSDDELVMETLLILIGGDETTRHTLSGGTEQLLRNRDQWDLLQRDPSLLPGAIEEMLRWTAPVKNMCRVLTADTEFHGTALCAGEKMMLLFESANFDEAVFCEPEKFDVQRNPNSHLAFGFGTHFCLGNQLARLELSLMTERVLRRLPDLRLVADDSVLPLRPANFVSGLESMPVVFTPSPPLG
T1 sequence (P9WPP1 whole entry): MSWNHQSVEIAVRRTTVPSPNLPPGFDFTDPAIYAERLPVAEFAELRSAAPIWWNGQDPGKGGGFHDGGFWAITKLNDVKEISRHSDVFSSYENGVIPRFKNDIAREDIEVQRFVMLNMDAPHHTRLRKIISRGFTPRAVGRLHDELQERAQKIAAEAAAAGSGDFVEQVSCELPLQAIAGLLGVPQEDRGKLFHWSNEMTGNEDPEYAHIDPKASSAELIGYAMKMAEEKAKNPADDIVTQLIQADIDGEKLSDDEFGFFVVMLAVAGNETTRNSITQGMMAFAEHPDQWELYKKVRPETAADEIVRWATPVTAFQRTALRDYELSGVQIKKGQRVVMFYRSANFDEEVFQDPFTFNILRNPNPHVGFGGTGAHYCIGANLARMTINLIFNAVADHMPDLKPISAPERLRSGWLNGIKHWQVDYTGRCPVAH

Compound	Kd (CYP125 [1]) [µM]	IC50 (CYP125 [2]) [µM]	Ki (CYP125 [2]) [µM]	MIC99 (Mtb H37Rv [3]; [13]) [µM]	MIC99 (Mtb CDC1551 [4]; [15]) [µM]	IC50 (Mtb H37Rv [5]; [16]) [µM]	IC50 (Mtb H37Rv [5]; [17]) [µM]	IC50 (Mtb CDC1551 [6]; [18]) [µM]	IC50 (Mtb CDC1551 [6]; [19]) [µM]	Kd (CYP142 [8]) [µM]	further results
O=C(NCc1ccc2[nH]ccc2c1)c1ccc(Cc2ccncc2)cc1 [5f, N-((1H-Indol-5-yl)methyl)-4-(pyridin-4-ylmethyl)benzamide]	0.59 ± 0.24	3.6 ± 0.41	1.1	> 50	> 50	> 50	> 50	> 50	> 50	3.2 ± 0.04	MIC99 (Mtb H37Rv [3]; [14]): >50 µM; MIC99 (Mtb CDC1551 [4]; [14]): >50 µM; IC50 (Mtb H37Rv [7]): > 50 µM; IC50 (Mtb CDC1551 [9]; [20]): > 50 µM; IC50 (Mtb CDC1551 [9]; [21]): > 50 µM
O=C(Nc1ccc(Cc2ccncc2)cc1)c1ccccc1 [5a, N-(4-(Pyridin-4-ylmethyl)phenyl)benzamide]	0.54 ± 0.22	4.3 ± 0.5	1.3	25 (≈ 7.21 µg/mL)	> 50	19	38	19	38	1.1 ± 0.1	MIC99 (Mtb CDC1551 [4]; [14]): >50 µM
Nc1ccc(C(=O)O)c(O)c1 [p-aminosalicylic acid, reference compound]						0.04	0.29	0.04	2.3		MIC99 (Mtb H37Rv [3]; Mycobacterium tuberculosis, H37RV, 336 h): 0.19 µM (≈ 0.0291 µg/mL); MIC99 (Mtb CDC1551 [4]; Mycobacterium tuberculosis, CDC1551, 336 h): 0.39 µM (≈ 0.0597 µg/mL); IC50 [10]: 2.4 ± 0.12 µM; IC50 (Mtb H37Rv [7]): < 0.04 µM and 0.07 µM; IC50 (Mtb CDC1551 [9]; [20]): < 0.04 µM; IC50 (Mtb CDC1551 [9]; [21]): 0.07 µM
O=C(NCc1ccc2[nH]ccc2c1)c1cccc(Cc2ccncc2)c1 [5e, N-((1H-Indol-5-yl)methyl)-3-(pyridin-4-ylmethyl)benzamide]	4 ± 0.36	9.2 ± 0.89	2.7	13 (≈ 4.44 µg/mL)	6.3 (≈ 2.15 µg/mL)	2.3	19	0.07	19		
COc1c(N2C[C@@H]3CCCN[C@@H]3C2)c(F)cc2c(=O)c(C(=O)O)cn(C3CC3)c12 [Moxifloxacin, moxifloxacin, reference compound]											IC50 (Mtb (Erdman)): 0.33 ± 0.01 µM
COc1ccc(CNc2ccc(N(C)c3ccncc3)cc2)cc1 [5n, N^1-(4-Methoxybenzyl)-N^4-methyl-N^4-(pyridin-4-yl)benzene-1,4-diamine]	2.9 ± 0.2	12 ± 1.2	3.6	50 (≈ 16 µg/mL)		4.7	9.4			0.2 ± 0.01	
CS(=O)(=O)Nc1ccc(Cc2ccncc2)cc1 [3g]	0.23 ± 0.04									1.1 ± 0.14	CYP125 Δλmax (nm) LS (CYP125 [11]): 30 nm; CYP125 LS/HS (CYP125 [11]; ratio of low spin to high spin CYP125): 2.7; CYP142 Δλmax (nm) (CYP142 [12]): 0 nm
CS(=O)(=O)c1cccc(CNc2ccc(Cc3ccncc3)cc2)c1 [5p, N-(3-(Methylsulfonyl)benzyl)-4-(pyridin-4-ylmethyl)aniline]	0.35 ± 0.19	10 ± 0.95	3.1	13 (≈ 4.58 µg/mL)	13 (≈ 4.58 µg/mL)	1.2	4.7	2.3	19		
C[C@@H](NC(=O)c1ccc(Cc2ccncc2)cc1)c1ccccc1 [5i, (R)-N-(1-Phenylethyl)-4-(pyridin-4-ylmethyl)benzamide]	7.4 ± 1	33 ± 3.7	9.8	25 (≈ 7.91 µg/mL)	25 (≈ 7.91 µg/mL)	9.4	4.7	2.3	38	0.64 ± 0.47	IC50 (Mtb CDC1551 [9]; [20]): 19 µM
C[C@@H](NC(=O)c1cccc(Cc2ccncc2)c1)c1ccccc1 [5h, (R)-N-(1-Phenylethyl)-3-(pyridin-4-ylmethyl)benzamide]	40 ± 2			25 (≈ 7.91 µg/mL)	25 (≈ 7.91 µg/mL)	9.4	19	2.3	38	3.3 ± 0.29	IC50 (Mtb CDC1551 [9]; [20]): 19 µM
CN(c1ccncc1)c1ccc(NC(=O)c2ccccc2)cc1 [5c, N-(4-(Methyl(pyridin-4-yl)amino)phenyl)benzamide]	7 ± 0.21	26 ± 2.4	7.7	> 50		9.4	19			3.1 ± 0.18	MIC99 (Mtb H37Rv [3]; [14]): >50 µM
CC(=O)Nc1ccc(Cc2ccncc2)cc1 [3f, N-(4-(Pyridin-4-ylmethyl)phenyl)acetamide]	18 ± 0.56									1.4 ± 0.36	CYP125 Δλmax (nm) LS (CYP125 [11]): 13 nm; CYP142 Δλmax (nm) (CYP142 [12]): 2 nm
O=S(=O)(Nc1ccc(Cc2ccncc2)cc1)c1ccccc1 [5j, N-(4-(Pyridin-4-ylmethyl)phenyl)benzenesulfonamide]	0.27 ± 0.02	1.5 ± 0.16	0.44	50 (≈ 16.2 µg/mL)	25 (≈ 8.11 µg/mL)	38	50	9.4	> 50		IC50 (Mtb H37Rv [7]): 19 µM; IC50 (Mtb CDC1551 [9]; [20]): 38 µM; IC50 (Mtb CDC1551 [9]; [21]): 38 µM
COc1ccc(C(C)Nc2ccc(Cc3ccncc3)cc2)cc1 (stereo not shown) [5o, N-(1-(4-Methoxyphenyl)ethyl)-4-(pyridin-4-ylmethyl)aniline]	0.8 ± 0.32	4.2 ± 0.48	1.2	19 (≈ 6.05 µg/mL)		0.15	0.59				IC50 (Mtb H37Rv [7]): 2.3 µM
O=C(NCc1ccc2[nH]ccc2c1)c1cccc(Nc2ccncc2)c1 [5g, N-((1H-Indol-5-yl)methyl)-3-(pyridin-4-ylamino)benzamide]	3.8 ± 0.18	25 ± 2.4	7.1	13 (≈ 4.45 µg/mL)	25 (≈ 8.56 µg/mL)	< 5	9.4	9.4	38		IC50 (Mtb H37Rv [5]; 1 week post-compound treatment, read-out: ATP-IC50 (W1) H37Rv, cholesterol): 4.7 µM
COc1ccc(CNc2cccc(Cc3ccncc3)c2)cc1 [5l, N-(4-Methoxybenzyl)-3-(pyridin-4-ylmethyl)aniline]	6.4 ± 1.1	18 ± 1.9	5.4	19 (≈ 5.78 µg/mL)		0.59	2.3				
O=C(Nc1ccc(Nc2ccncc2)cc1)c1ccccc1 [5b, N-(4-(Pyridin-4-ylamino)phenyl)benzamide]	11 ± 1.8									2.83 ± 0.001	
